Patent US5922724A, “Benzimidazole compounds and their use as modulators of the GABA a receptor complex” (Neurosearch A/S, priority 1995, dated 1999)

Biological target: benzodiazepine receptor sites (GABAA receptor complex)
Assay: Displacement of ^3 H-flunitrazepam (^3 H-FNM) binding to rat cerebral cortex membranes
Design: species or system male Wistar rats (cerebral cortex)
Conditions: ^3 H-FNM 1 nM, 40 min at 2° C., pH 7.1, non-specific binding with clonazepam 1 μM, read-out: IC50 (concentration of the test substance which inhibits the specific binding of ^3 H-FNM by 50%)
Excerpt: At present two types of GABA receptors are known, the GABAA and the GABAB receptors. […] Activation of GABA receptors leads to alternations in membrane potential (hyperpolarization). The GABAA receptors are associated with chloride influx through its associated and integrated chloride channel, whereas GABAB receptor activation indirectly alters potassium and calcium channels as well as modifies second messenger production. The GABAA recognition sites can be activated by GABA, muscimol; and isoguvacine for example, but not by GABAB agonists such as for example baclofen. The modulatory GABAA recognition site at the benzodiazepine receptor sites can be selectively radiolabelled with ^3 H-flunitrazepam. The affinity of various potential ligands for the benzodiazepine receptor sites can thus be evaluated by estimating the ability of test compounds to displace ^3 H-flunitrazepam.
Preparations are performed at 0-4° C. unless otherwise indicated. Cerebral cortex from male Wistar rats (150-200 g) is homogenized for 5-10 sec in 20 ml Tris-HCl (30 mM, pH 7.4) using an Ultra-Turrax homogenizer. […]
The membrane preparation is thawed and centrifuged at 2° C. for 10 min at 27,000× g. […] Non-specific binding is determined using clonazepam (1 μM, final concentration). […] The amount of radioactivity on the filters is determined by conventional liquid scintillation counting. […]

SMILES | IC50
c1cc(-n2ccnc2)cc(-n2cnc3cc(-c4ccoc4)ccc32)c1 [1-(3-(1-Imidazolyl)phenyl)-5-(3-furanyl)benzimidazole] | 0.4 nM
Cc1nccn1-c1cccc(-n2cnc3cc(-c4ccoc4)ccc32)c1 [1-(3-(2-Methylimidazol-1-yl)phenyl)-5-(3-furanyl)benzimidazole] | 0.4 nM
